Measured values as given in US20170007615A1, “Antibacterial Compounds” (priority 2014, published 2017).
Converted amounts (≈) assume the structure as drawn. Like-named read-outs stand apart in the source and are kept apart here. Positions of bridges follow the written chain, without caps; N, C: chain ends. Non-standard residues stand in square brackets, D forms with d. Residues, ends and D or L forms follow the SMILES beside them. *: point of attachment. Ileψ(thiazoline)Cys = CC[C@H](C)[C@H](N)C1=N[C@H](C(=O)*)CS1; dOrn = NCCC[C@@H](N)C(=O)O

Key:
E. coli (ATCC 25922) [1] = settings: for MIC of Compound (μg/ml) in the presence of PMBN (32 μg/ml): (b) No significant effect; for MIC of Compound (μg/ml) in the presence of PMBN (128 μg/ml): Table 1, (b) No effect
E. coli (ATCC 25922) [2] = assay: microbe, parasite or virus in culture; settings: Escherichia coli
[3] = ATCC25922, read-out: MIC Compound alone, Table 12
[4] = ATCC25922, read-out: MIC Compound alone, Table 1

Row | Molecule | MIC of Compound (μg/ml) in the presence of PMBN (32 μg/ml) (E. coli (ATCC 25922) [1]; Table 12) | MIC of Compound (μg/ml) in the presence of PMBN (128 μg/ml) (E. coli (ATCC 25922) [1]) | MIC (E. coli (ATCC 25922) [2]; [4]) [µg/mL] | further results
1 | CC1(C)S[C@@H]2[C@H](NC(=O)[C@H](N)c3ccc(O)cc3)C(=O)N2[C@H]1C(=O)O [Amoxicillin, reference compound] | 8 µg/mL |  |  | MIC (E. coli (ATCC 25922) [2]; [3]): 32 µg/mL (≈ 87.6 µM)
2 | CC[C@H](C)[C@H](N)C1=N[C@H](C(=O)N[C@@H](CC(C)C)C(=O)N[C@H](CCC(=O)O)C(=O)N[C@H](C(=O)N[C@H]2CCCCNC(=O)[C@H](CC(N)=O)NC(=O)[C@@H](CC(=O)O)NC(=O)[C@H](Cc3cnc[nH]3)NC(=O)[C@@H](Cc3ccccc3)NC(=O)[C@H]([C@@H](C)CC)NC(=O)[C@@H](CCCN)NC2=O)[C@@H](C)CC)CS1 [Bacitracin, reference compound] ({Ileψ(thiazoline)Cys}-L[dE]IK[dOrn]I[dF]H[dD]N; lactam 4-C) | >64^(b) μg/ml |  |  | MIC Compound alone (E. coli (ATCC 25922) [1]; ATCC 25922): >64 µg/mL
3 | CC1(C)S[C@@H]2[C@H](NC(=O)C(C(=O)O)c3ccccc3)C(=O)N2[C@H]1C(=O)O (stereo partly drawn) [Carbenicillin, reference compound] | 32^(b) μg/ml |  |  | MIC (E. coli (ATCC 25922) [2]; [3]): 64 µg/mL (≈ 169 µM)
4 | CC(C)(O/N=C(\C(=O)N[C@@H]1C(=O)N2C(C(=O)[O-])=C(C[n+]3ccccc3)CS[C@H]12)c1csc(N)n1)C(=O)O [Ceftazidime, reference compound] | 0.15 µg/mL |  |  | MIC (E. coli (ATCC 25922) [2]; [3]): 0.6 µg/mL (≈ 1.1 µM)
5 | CO/N=C(\C(=O)N[C@@H]1C(=O)N2C(C(=O)O)=C(CSc3nc(=O)c(=O)[nH]n3C)CS[C@H]12)c1csc(N)n1 [Ceftriaxone, reference compound] | 0.06^(b) μg/ml |  |  | MIC (E. coli (ATCC 25922) [2]; [3]): 0.06 µg/mL (≈ 0.108 µM)
6 | O=C(N[C@H](CO)[C@H](O)c1ccc([N+](=O)[O-])cc1)C(Cl)Cl [Chloramphenicol, reference compound] | 1 µg/mL |  |  | MIC (E. coli (ATCC 25922) [2]; [3]): 4 µg/mL (≈ 12.4 µM)
7 | CCNC(=O)Nc1nc2cc(-c3cnc(NC(=O)N4CC[C@@H](O)C4)nc3)cc(-c3ccc(C)cn3)c2s1 [Compound A-1, (3R)—N-[5-[2-(Ethylcarbamoylamino)-7-(5-methyl-2-pyridyl)-1,3-benzothiazol-5-yl]pyrimidin-2-yl]-3-hydroxy-pyrrolidine-1-carboxamide] |  | 0.12 µg/mL | > 64 | 
8 | CCNC(=O)Nc1nc2cc(-c3cc(C)n(Cc4cccc(C)n4)c(=O)c3)cc(-c3ccccn3)c2s1 [Compound A-2, 1-Ethyl-3-[5-[2-methyl-1-[(6-methyl-2-pyridyl)methyl]-6-oxo-4-pyridyl]-7-(2-pyridyl)-1,3-benzothiazol-2-yl]urea] |  | <=.12 μg/ml | > 64 | 
9 | CCNC(=O)Nc1nc2cc(-n3cnc(C)c3)cc(-c3ccccn3)c2s1 [Compound A-3, 1-Ethyl-3-[5-(4-methylimidazol-1-yl)-7-(2-pyridyl)-1,3-benzothiazol-2-yl]urea] |  | <=1 μg/ml | > 64 | MIC of Compound (μg/ml) in the presence of Colistin (1 μg/ml) (E. coli (ATCC 25922) [1]; Table 2, colistin sub-inhibitory): ≦1 μg/ml; MIC of Compound (μg/ml) in the presence of PMB (0.5 μg/ml) (E. coli (ATCC 25922) [1]; Table 3, PMB sub-inhibitory): ≦1 μg/ml; MIC (E. coli (ATCC 25922) [2]; ATCC25922, read-out: MIC Compound alone, Table 2): > 64 µg/mL; MIC (E. coli (ATCC 25922) [2]; ATCC25922, read-out: MIC Compound alone, Table 3): > 64 µg/mL
10 | CCNC(=O)Nc1nc2cc(-c3cc(C)n(C(C)c4ccc(C)nc4)c(=O)c3)cc(-c3ccccn3)c2s1 (stereo not drawn) [Compound A-4, 1-Ethyl-3-[5-[2-methyl-1-[1-(6-methyl-3-pyridyl)ethyl]-6-oxo-4-pyridyl]-7-(2-pyridyl)-1,3-benzothiazol-2-yl]urea] |  | 0.5 µg/mL | > 64 | 
11 | CCNC(=O)Nc1nc2cc(-c3cnc(NC(=O)OC)nc3)cc(-c3ccccn3)c2s1 [Compound A-5, Methyl N-[5-[2-(ethylcarbamoylamino)-7-(2-pyridyl)-1,3-benzothiazol-5-yl]pyrimidin-2-yl]carbamate] |  | 0.008 µg/mL | > 64 | 
12 | CCNC(=O)Nc1nc2cc(-c3cnc(NC(=O)N4CCCC4)nc3)cc(-c3cc(CN4CCOCC4)ccn3)c2s1 [Compound A-6, N-[5-[2-(Ethylcarbamoylamino)-7-[4-(morpholinomethyl)-2-pyridyl]-1,3-benzothiazol-5-yl]pyrimidin-2-yl]pyrrolidine-1-carboxamide] |  | 0.25 µg/mL | > 64 | 
13 | CCNC(=O)Nc1nc2cc(-c3cnc(C(C)(O)CO)nc3)ccc2s1 (stereo not drawn) [Compound A-7, 1-[5-[2-(1,2-Dihydroxy-1-methyl-ethyl)pyrimidin-5-yl]-1,3-benzothiazol-2-yl]-3-ethyl-urea] |  | 4 µg/mL | 32 (≈ 85.7 µM) | 
14 | CCNC(=O)Nc1nc2cc(-c3cnc(C(C)(O)CO)nc3)cc(C)c2s1 (stereo not drawn) [Compound A-9, 1-[5-[2-(1,2-Dihydroxy-1-methyl-ethyl)pyrimidin-5-yl]-7-methyl-1,3-benzothiazol-2-yl]-3-ethyl-urea] |  | 2 µg/mL | 32 (≈ 82.6 µM) | 
15 | CCNC(=O)Nc1nc2cc(-c3cnc(NS(=O)(=O)CC(=O)OC)nc3)cc(-c3ccc(C)cn3)c2s1 [Compound A-16, Methyl 2-[[5-[2-(ethylcarbamoylamino)-7-(5-methyl-2-pyridyl)-1,3-benzothiazol-5-yl]pyrimidin-2-yl]sulfamoyl]acetate] |  | 0.25 µg/mL | > 64 | 
16 | C=CCS(=O)(=O)Nc1ncc(-c2cc(-c3ccc(C)cn3)c3sc(NC(=O)NCC)nc3c2)cn1 [Compound A-17, 1-[5-[2-(allylsulfonylamino)pyrimidin-5-yl]-7-(5-methyl-2-pyridyl)-1,3-benzothiazol-2-yl]-3-ethyl-urea] |  | 0.03 µg/mL | 2 (≈ 3.92 µM) | 
17 | CCNC(=O)Nc1nc2cc(-c3cnc(NS(=O)(=O)C(C)(C)C)nc3)cc(-c3cnc(N(C)C)nc3)c2s1 [Compound A-18, 1-[5-[2-(tert-butylsulfonylamino)pyrimidin-5-yl]-7-[2-(dimethylamino)pyrimidin-5-yl]-1,3-benzothiazol-2-yl]-3-ethyl-urea] |  | 0.12 µg/mL | > 64 | 
18 | CCNC(=O)Nc1nc2cc(-c3cnc(CNS(C)(=O)=O)nc3)cc(-c3ccc(C)cn3)c2s1 [Compound A-19, 1-ethyl-3-[5-[2-(methanesulfonamidomethyl)pyrimidin-5-yl]-7-(5-methyl-2-pyridyl)-1,3-benzothiazol-2-yl]urea] |  | <=.12 μg/ml | > 64 | 
19 | CCNC(=O)Nc1nc2cc(-c3cnc(NS(=O)(=O)C(C)(C)C)nc3)cc(N3CCN(CCN4CCCC4)CC3)c2s1 [Compound A-20, 1-[5-[2-(tert-butylsulfonylamino)pyrimidin-5-yl]-7-[4-(2-pyrrolidin-1-ylethyl)piperazin-1-yl]-1,3-benzothiazol-2-yl]-3-ethyl-urea] |  | 32 µg/mL | > 64 | 
20 | CCNC(=O)Nc1nc2cc(-c3cccnc3)cc(C(=O)OC)c2[nH]1 [Compound A-22, Methyl 2-(ethylcarbamoylamino)-6-(3-pyridyl)-3H-benzimidazole-4-carboxylate, reference compound] |  | 0.5 µg/mL | 8 (≈ 23.6 µM) | 
21 | CNc1cc(F)cc2c1[nH]c1nc(Oc3ccc(C)nc3)nc(N3CCCC3)c12 [Compound A-23, 6-Fluoro-N-methyl-2-[(6-methyl-3-pyridyl)oxy]-4-pyrrolidin-1-yl-9H-pyrimido[4,5-b]indol-8-amine, reference compound] |  | 0.06 µg/mL | 1 (≈ 2.55 µM) | 
22 | CCNC(=O)Nc1nc2c(-c3ccc(C)cn3)cc(-c3cnc(NS(=O)(=O)C(C)(C)C)nc3)cn2n1 [Compound A-101, 1-[6-[2-(tert-butylsulfonylamino)pyrimidin-5-yl]-8-(5-methyl-2-pyridyl)-[1,2,4]triazolo[1,5-a]pyridin-2-yl]-3-ethyl-urea] |  | 2 µg/mL | > 64 | 
23 | CC(C)(C)S(=O)(=O)Nc1ncc(-c2cc(Br)c3sc(N)nc3c2)cn1 [Compound A-102, N-[5-(2-amino-7-bromo-1,3-benzothiazol-5-yl)pyrimidin-2-yl]-2-methyl-propane-2-sulfonamide] |  | 2 µg/mL | > 64 | 
24 | CCn1cc(C(=O)O)c(=O)c2cc(F)c(N3CCNCC3)nc21 [Enoxacin, reference compound] | 0.03^(b) μg/ml |  |  | MIC (E. coli (ATCC 25922) [2]; [3]): 0.06 µg/mL (≈ 0.187 µM)
25 | CN(C)c1cc(NC(=O)CNC(C)(C)C)c(O)c2c1C[C@H]1C[C@H]3[C@H](N(C)C)C(O)=C(C(N)=O)C(=O)[C@@]3(O)C(O)=C1C2=O [Tigecyclin, reference compound] | ≦0.25^(b) μg/ml |  |  | MIC Compound alone (E. coli (ATCC 25922) [1]; Table 12): ≦0.25 μg/ml
26 | Gentamicin [reference compound] | 8^(b) μg/ml |  |  | MIC Compound alone (E. coli (ATCC 25922) [1]; Table 12): 8 µg/mL
27 | Polymyxin B [PMB, reference compound] |  |  |  | MIC PMB alone (E. coli (ATCC 25922) [1]; Table 3): 1 µg/mL
